Read-outs that look alike come from different tables or passages of the source.

Broadly, the EC50 is the concentration that produces a half-maximal response. Broadly, the Tmax is the time from dosing to the highest level. The term AUC(0-t) denotes exposure summed from dosing to a finite time, without extrapolation to infinity. By bioavailability is commonly meant dose-corrected exposure relative to a reference, in per cent. What is called Cmax is the maximum level reached in the sampled fluid or tissue. As a reminder, the clearance is the rate of elimination divided by the concentration. Broadly, the half-life is the time needed for the level to fall by half in the phase considered. What is called Vss is the apparent volume that relates the amount in the body to the concentration in plasma or blood.

For one series, the system named is Sprague Dawley rats. The series is described as follows: Porsolt forced swim test. The format is in vivo. To be noted: 1 h post-dose, 0.1 mg/kg. As to the method: A non-clinical in vivo pharmacology study (Porsolt assay) was performed to measure antidepressant-like effects. The study allowed for the evaluation of the effects of each compound on the Porsolt forced swim test as assessed by the rats' response (reduced floating time) during a 5-minute swimming test.
Male 2-3 month old Sprague Dawley rats were used (Harlan, Indianapolis, Ind.). Rats were housed in Lucite cages with aspen wood chip bedding, maintained on a 12:12 light:dark cycle (lights on at 5 AM), and given ad libitum access to Purina lab chow (USA) and tap water throughout the study.
The Porsolt forced swim test adapted for use in rats was performed as described by Burgdorf et al., (The long-lasting antidepressant effects of rapastinel (GLYX-13) are associated with a metaplasticity process in the medial prefrontal cortex and hippocampus. Neuroscience 308:202-211, 2015). Animals were placed in a 46 cm tall×20 cm in diameter clear glass tube filled to 30 cm with tap water (23±1° C.) for 15 min on the first day (habituation) and 5 min on the subsequent test day. Animals were tested 1 h or 24 h post-dosing with the test compounds or vehicle control (0.5% sodium carboxymethyl cellulose in 0.9% sterile saline). A subset of compounds tested at 1 h post-dosing was tested again 1 wk post-dosing. Animals received a 15 min habituation session 1 day before the first 5 min test. Water was changed after every other animal. Animals were videotaped, and floating time as defined as the minimal amount of effort required to keep the animals head above water was scored offline by a blinded experimenter with high inter-rater reliability (Pearson's r >0.9).

In the next series the target is T1, NMDAR2A (Homo sapiens, UniProt Q12879).
T1 construct: expressed in transfected cells; host or cells: HEK cells (membrane extract)
T1 sequence (Q12879 23-1464, species assumed, other chains not shown): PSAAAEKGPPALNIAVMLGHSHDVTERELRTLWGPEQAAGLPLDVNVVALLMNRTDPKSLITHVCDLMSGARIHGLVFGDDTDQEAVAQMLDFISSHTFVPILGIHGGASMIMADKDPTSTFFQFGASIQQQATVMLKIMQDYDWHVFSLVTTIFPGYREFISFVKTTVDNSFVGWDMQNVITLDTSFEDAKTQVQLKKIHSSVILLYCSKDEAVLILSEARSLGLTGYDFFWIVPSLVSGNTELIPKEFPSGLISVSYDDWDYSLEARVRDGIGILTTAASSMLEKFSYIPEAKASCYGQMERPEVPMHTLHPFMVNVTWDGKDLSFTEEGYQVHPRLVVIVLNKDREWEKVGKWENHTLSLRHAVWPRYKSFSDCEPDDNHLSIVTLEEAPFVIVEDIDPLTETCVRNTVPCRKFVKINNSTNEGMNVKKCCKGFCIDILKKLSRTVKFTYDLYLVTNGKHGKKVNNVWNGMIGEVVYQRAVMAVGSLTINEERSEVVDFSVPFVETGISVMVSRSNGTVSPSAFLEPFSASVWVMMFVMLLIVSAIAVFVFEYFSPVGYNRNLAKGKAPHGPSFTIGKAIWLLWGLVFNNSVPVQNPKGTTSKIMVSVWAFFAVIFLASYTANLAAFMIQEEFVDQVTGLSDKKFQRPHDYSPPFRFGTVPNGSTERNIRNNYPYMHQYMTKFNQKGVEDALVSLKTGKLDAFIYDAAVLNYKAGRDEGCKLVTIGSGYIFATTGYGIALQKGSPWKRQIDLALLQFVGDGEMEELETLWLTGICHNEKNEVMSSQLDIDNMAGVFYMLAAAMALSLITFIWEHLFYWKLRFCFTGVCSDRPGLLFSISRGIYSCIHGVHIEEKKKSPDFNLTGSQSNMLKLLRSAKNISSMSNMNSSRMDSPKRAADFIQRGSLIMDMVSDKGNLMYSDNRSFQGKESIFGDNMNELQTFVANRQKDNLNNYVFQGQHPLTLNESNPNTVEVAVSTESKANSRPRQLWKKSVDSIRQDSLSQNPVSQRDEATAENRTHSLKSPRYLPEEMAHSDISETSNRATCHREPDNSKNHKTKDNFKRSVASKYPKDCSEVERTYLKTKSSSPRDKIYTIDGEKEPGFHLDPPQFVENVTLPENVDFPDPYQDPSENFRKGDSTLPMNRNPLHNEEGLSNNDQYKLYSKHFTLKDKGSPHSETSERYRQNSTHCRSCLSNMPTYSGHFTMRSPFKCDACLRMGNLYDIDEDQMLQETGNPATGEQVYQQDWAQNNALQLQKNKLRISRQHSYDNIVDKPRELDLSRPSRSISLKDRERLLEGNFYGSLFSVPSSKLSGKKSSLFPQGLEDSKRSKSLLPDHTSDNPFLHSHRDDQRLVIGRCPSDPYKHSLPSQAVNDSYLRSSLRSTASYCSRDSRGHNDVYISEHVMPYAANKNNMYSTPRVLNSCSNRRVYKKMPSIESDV
Briefly: NMDAR agonist assay, [3H]MK-801 binding, NMDAR2A expressing HEK cell membranes. It is filed as biochemical. To be noted: 50 μM glutamate; for EC50: read-out: NMDAR2A B: log EC50 (converted). In short, it runs like this:
(§1)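 Membranes from HEK cells (300 μg protein) preincubated 15 min with 50 μM glutamate plus compound (1×10^−15–1×10^−7 M) or 1 mM glycine, then with 0.3 μCi [3H]MK-801 for 15 min at 25° C. (nonequilibrium); filter-bound DPM, baseline-subtracted, expressed as % of 1 mM glycine; EC50 and % maximum from three-parameter fit.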

Series [1] is described as follows: Microsomal stability (Human). The format is in vitro ADME. The conditions noted are these: after 60 minutes. As to the method: (§2) Microsomal stability of disclosed compounds was investigated. The following table indicates the percent of compound remaining after 60 minutes.
Series [2] can be described thus: Oral pharmacokinetics in Sprague Dawley rats (plasma, brain, CSF). It is filed as in vivo. To be noted: rat. As to the method: In another experiment, Sprague Dawley rats were dosed per os (oral gavage) using a normal saline formulation containing 10 mg/kg of the compounds identified in the table below. Plasma, brain, and CSF samples were analyzed at various time points over a 24 hour period. The table below summarizes the results of the oral pharmacokinetics, where the first three values (Tmax, Cmax and AUClast) are plasma values.

The next series deals with T2, NMDAR2B (Homo sapiens, UniProt Q13224).
T2 construct: expressed in transfected cells; host or cells: HEK cells (membrane extract)
T2 sequence (Q13224 27-1484, species assumed, other chains not shown): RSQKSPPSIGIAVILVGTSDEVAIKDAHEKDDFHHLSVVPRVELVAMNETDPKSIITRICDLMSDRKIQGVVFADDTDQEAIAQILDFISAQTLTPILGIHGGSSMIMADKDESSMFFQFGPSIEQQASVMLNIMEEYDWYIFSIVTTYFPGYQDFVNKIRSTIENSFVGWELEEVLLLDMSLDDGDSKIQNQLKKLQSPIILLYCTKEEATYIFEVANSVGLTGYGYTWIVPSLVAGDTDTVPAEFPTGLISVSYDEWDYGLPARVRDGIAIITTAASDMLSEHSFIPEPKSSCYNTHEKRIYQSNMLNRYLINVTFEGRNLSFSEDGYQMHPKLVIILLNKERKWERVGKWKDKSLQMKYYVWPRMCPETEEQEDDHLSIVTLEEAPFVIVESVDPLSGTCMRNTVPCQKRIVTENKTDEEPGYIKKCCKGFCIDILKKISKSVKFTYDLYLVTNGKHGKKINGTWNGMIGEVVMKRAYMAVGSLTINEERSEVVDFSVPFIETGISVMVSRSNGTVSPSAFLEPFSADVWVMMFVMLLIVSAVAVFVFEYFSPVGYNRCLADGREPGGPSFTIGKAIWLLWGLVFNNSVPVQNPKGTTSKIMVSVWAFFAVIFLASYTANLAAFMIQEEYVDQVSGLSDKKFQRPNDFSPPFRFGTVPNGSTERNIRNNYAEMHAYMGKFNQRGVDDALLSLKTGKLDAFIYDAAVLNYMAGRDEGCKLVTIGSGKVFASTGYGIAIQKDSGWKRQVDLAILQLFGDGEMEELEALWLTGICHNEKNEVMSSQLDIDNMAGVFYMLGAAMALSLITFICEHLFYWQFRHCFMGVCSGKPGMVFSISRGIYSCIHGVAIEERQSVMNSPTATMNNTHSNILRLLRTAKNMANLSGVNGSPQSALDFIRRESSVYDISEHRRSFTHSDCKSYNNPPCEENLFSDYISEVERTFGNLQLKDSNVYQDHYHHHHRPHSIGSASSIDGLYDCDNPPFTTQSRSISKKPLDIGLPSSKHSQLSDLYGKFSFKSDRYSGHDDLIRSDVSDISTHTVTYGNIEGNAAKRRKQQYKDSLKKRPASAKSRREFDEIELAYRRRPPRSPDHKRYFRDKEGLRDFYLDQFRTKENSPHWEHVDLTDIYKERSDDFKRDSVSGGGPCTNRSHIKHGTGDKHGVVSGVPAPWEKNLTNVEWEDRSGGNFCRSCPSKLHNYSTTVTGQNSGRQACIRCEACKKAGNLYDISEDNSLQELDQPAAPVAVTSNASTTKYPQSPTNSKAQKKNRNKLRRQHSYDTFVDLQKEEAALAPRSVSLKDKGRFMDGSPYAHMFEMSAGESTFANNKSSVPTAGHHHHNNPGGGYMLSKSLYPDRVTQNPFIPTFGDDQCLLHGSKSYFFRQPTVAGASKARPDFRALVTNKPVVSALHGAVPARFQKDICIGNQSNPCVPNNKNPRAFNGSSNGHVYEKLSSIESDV
Briefly: NMDAR agonist assay, [3H]MK-801 binding, NMDAR2B expressing HEK cell membranes. The format is biochemical. The conditions noted are these: 50 μM glutamate; for EC50: read-out: NMDAR2B B: log EC50 (converted). An outline of the steps:
as §1

Series [3] is described as follows: Microsomal stability (Rat). It is filed as in vitro ADME. The conditions noted are these: after 60 minutes. How it is done: as §2
Series [4] in a line: IV pharmacokinetics in Sprague Dawley rats. The format is in vivo. To be noted: rat, 2 mg/kg, normal saline; for Vd: read-out: Vss. As to the method:
Sprague Dawley rats were dosed intravenously using a normal saline formulation containing 2 mg/kg of the compounds identified in the below table. The table below summarizes the results of the IV pharmacokinetics.

The next series is described as follows: Plasma stability (Rat). It is filed as in vitro ADME. To be noted: after 60 minutes. As to the method:
(§3) Plasma stability of disclosed compounds was investigated. The following table indicates the percent of compound remaining after 60 minutes.

Another series is described as follows: Plasma stability (Human). The format is in vitro ADME. The conditions noted are these: after 60 minutes. How it is done: as §3
Where [5] appears, read: Sprague-Dawley, po, per os, 10 mg/kg, plasma, read-out: Tmax.
Where [6] appears, read: Sprague-Dawley, plasma, po, 10 mg/kg, per os.
Setting [7] is: Sprague-Dawley, plasma, po, 10 mg/kg, per os 10 mg/kg.
Setting [8] is: Sprague-Dawley, plasma, po, 10 mg/kg, per os, 10 mg/kg, plasma, read-out: Cmax.
[9] abbreviates: Sprague-Dawley, in vivo, iv, read-out: Cmax.

As to `O=C1NCC=CCC12CC(F)(F)CN2` (single isomer, unassigned) [GL-2, 3,3-difluoro-1,7-diazaspiro[4.6]undec-9-en-6-one], in the series with Sprague Dawley rats, the “% reduction in float time” value was 6% and the Significance vs. vehicle result is “No”. On NMDAR2A, the EC50 is less than 1 nM. In series [1], the “Microsomal (Human): percent of compound remaining” value came out at 99%. In addition, the Tmax in series [2] (setting [5]) stood at 0.5 h. This compound came in with an AUC(0-t) in series [2] (setting [6]) of 30500 ng·h/mL. In series [2] (setting [7]), the bioavailability was determined as 53%. Besides, the Cmax in series [2] (setting [8]) turned out to be 5820 ng/mL. Moreover, in [2] (per os, 10 mg/kg), the “CSF Cmax” value turned out to be 4433.95 ng/mL and the “Brain Cmax” value is reported as 3556.03 ng/mL. Besides, the EC50 at NMDAR2B was less than 1 nM. In [3], the “Microsomal (Rat): percent of compound remaining” value was found to be 98%. In series [4] (Sprague-Dawley, in vivo, iv), the AUC(0-t) was found to be 11500 ng·h/mL, the clearance stood at 2.84 mL/min/kg, the half-life is 4.07 h and the Vd was found to be 1.15 L/kg. The Cmax in series [4] (setting [9]) was 1630 ng/mL. Also, in “Plasma stability (Rat)”, the “Plasma (Rat): percent of compound remaining” value was found to be 97%. Further, the “Plasma (Human): percent of compound remaining” value in “Plasma stability (Human)” is 91%.

As for `CC(=O)N1CCCC12CC=CCNC2=O` (single isomer, unassigned) [GG-2, 1-acetyl-1,7-diazaspiro[4.6]undec-9-en-6-one], in the series with Sprague Dawley rats, the “% reduction in float time” value is 4% and the Significance vs. vehicle entry is “No”. In addition, on NMDAR2A, the EC50 was less than 1 nM. In addition, the “Microsomal (Human): percent of compound remaining” value in series [1] is listed as 88%. Further, the Tmax in series [2] (setting [5]) is 0.25 h. Moreover, in [2] (setting [6]), the AUC(0-t) was 19600 ng·h/mL. Moreover, in [2] (setting [7]), the bioavailability turned out to be 100%. Moreover, the maximum concentration (Cmax) in series [2] (setting [8]) stood at 9200 ng/mL. In series [2] (per os, 10 mg/kg), the “CSF Cmax” value came to 2271.94 ng/mL and the “Brain Cmax” value was determined as 1689.69 ng/mL. Also, at NMDAR2B, the EC50 was less than 1 nM. Besides, the “Microsomal (Rat): percent of compound remaining” value in series [3] turned out to be 106%. In [4] (Sprague-Dawley, in vivo, iv), the AUC(0-t) was determined as 2550 ng·h/mL, the clearance is 13.1 mL/min/kg, the half-life is 0.54 h and the Vd is 0.58 L/kg. Besides, in [4] (setting [9]), the Cmax worked out at 3420 ng/mL. The “Plasma (Rat): percent of compound remaining” value in the series “Plasma stability (Rat)” worked out at 101%. In addition, the “Plasma (Human): percent of compound remaining” value in “Plasma stability (Human)” is on record as 99%.

For `NC(=O)CN1CCCC12CC=CCNC2=O` (single isomer, unassigned) [GQ-2, 2-(6-oxo-1,7-diazaspiro[4.6]undec-9-en-1-yl)acetamide], the EC50 at NMDAR2A is less than 1 nM. The “NMDAR2A A: % maximal [3H]MK-801 binding relative to 1 mM glycine” value on NMDAR2A (relative to 1 mM glycine) was “+ (<100%=+)”. Besides, the “Microsomal (Human): percent of compound remaining” value in [1] was determined as 94%. For the same compound, the Tmax in series [2] (setting [5]) was determined as 0.25 h. This compound yielded an AUC(0-t) in [2] (setting [6]) of 5480 ng·h/mL. In [2] (setting [7]), this compound returned a bioavailability of 85%. Besides, the Cmax in series [2] (setting [8]) was 5390 ng/mL. In series [2] (per os, 10 mg/kg), the “CSF Cmax” value was determined as 1400.31 ng/mL and the “Brain Cmax” value turned out to be 492.96 ng/mL. In addition, the EC50 at NMDAR2B is less than 1 nM. The “NMDAR2B A: % maximal [3H]MK-801 binding relative to 1 mM glycine” value on NMDAR2B (relative to 1 mM glycine) was “+ (<100%=+)”. Besides, in [3], the “Microsomal (Rat): percent of compound remaining” value amounted to 102%. Also, in [4] (Sprague-Dawley, in vivo, iv), the AUC(0-t) was 1290 ng·h/mL, the clearance is 25.7 mL/min/kg, the half-life is 1.77 h and the Vd amounted to 1.11 L/kg. Also, the Cmax in series [4] (setting [9]) turned out to be 2310 ng/mL. For the same compound, in “Plasma stability (Rat)”, the “Plasma (Rat): percent of compound remaining” value is reported as 97%. For the same compound, in the series “Plasma stability (Human)”, the “Plasma (Human): percent of compound remaining” value is reported as 96%.

On to `O=C1NCCCC12CCCCN2` (single isomer, unassigned) [AY, 1,8-diazaspiro[5.5]undecan-7-one], for which the EC50 on NMDAR2A is less than 1 nM. The “NMDAR2A A: % maximal [3H]MK-801 binding relative to 1 mM glycine” value on NMDAR2A (relative to 1 mM glycine) is recorded as “+ (<100%=+)”. Further, in series [1], the “Microsomal (Human): percent of compound remaining” value is on record as 97%. Further, the “% F” value in series [2] (per os 10 mg/kg) was found to be 79%. Also, in series [2] (per os, 10 mg/kg), the “CSF Cmax” value amounted to 701.8 ng/mL and the “Brain Cmax” value came to 799.5 ng/mL. Further, in series [2] (per os, 10 mg/kg, plasma), the “AUC(0-last)” value was found to be 6528.55 ng·h/mL, the Cmax was 3038.07 ng/mL and the Tmax came to 1 h. Further, the EC50 at NMDAR2B is less than 1 nM. Moreover, the “NMDAR2B A: % maximal [3H]MK-801 binding relative to 1 mM glycine” value at NMDAR2B (relative to 1 mM glycine) is “+ (<100%=+)”. In addition, the “Microsomal (Rat): percent of compound remaining” value in series [3] is 114%. In series [4], this compound registered an AUClast of 1658.09 ng·h/mL, a Cl of 20.15 mL/min/kg, a Cmax of 1552.63 ng/mL and a T1/2 of 9.65 h. In [4], this compound yielded a Vss of 3.88 L/kg. Besides, the “Plasma (Rat): percent of compound remaining” value in the series “Plasma stability (Rat)” is reported as 107%. In addition, the “Plasma (Human): percent of compound remaining” value in “Plasma stability (Human)” was determined as 104%.

As for `O=C1NCCCC12CCCCN2` (single isomer, unassigned) [AX, 1,8-diazaspiro[5.5]undecan-7-one], the EC50 on NMDAR2A is less than 1 nM. Moreover, the Emax on NMDAR2A (0.25 h, relative to 1 mM glycine, read-out: NMDAR2A A: % maximal [3H]MK-801 binding relative to 1 mM glycine) is less than 100%. In [1], the “Microsomal (Human): percent of compound remaining” value worked out at 93%. In addition, the Tmax in series [2] (setting [5]) was determined as 1 h. In series [2] (setting [6]), this compound returned an AUC(0-t) of 6680 ng·h/mL. Also, the bioavailability in [2] (setting [7]) was 98%. The Cmax in series [2] (setting [8]) came out at 2560 ng/mL. For the same compound, in [2] (per os, 10 mg/kg), the “CSF Cmax” value was 342.07 ng/mL and the “Brain Cmax” value is reported as 1547.36 ng/mL. Also, on NMDAR2B, the EC50 is not below 1 nM. Moreover, the Emax on NMDAR2B (relative to 1 mM glycine, read-out: NMDAR2B A: % maximal [3H]MK-801 binding relative to 1 mM glycine) was less than 100%. The “Microsomal (Rat): percent of compound remaining” value in series [3] is recorded as 120%. In addition, in [4] (Sprague-Dawley, in vivo, iv), the AUC(0-t) worked out at 1360 ng·h/mL, the clearance was determined as 24.4 mL/min/kg, the half-life was 9.15 h and the Vd turned out to be 3.31 L/kg. In addition, in series [4] (setting [9]), the Cmax is 1420 ng/mL. Further, the “Plasma (Rat): percent of compound remaining” value in the series “Plasma stability (Rat)” came to 99%. In addition, the “Plasma (Human): percent of compound remaining” value in “Plasma stability (Human)” turned out to be 105%.

The values above are taken from patent US20210047324A1 (Aptinyx Inc., priority 2018, published 2021).
